# Measurements as given in patent publication US20040005537A1, “Method of identifying toxic agents using differential gene expression” (priority 2000, published 2004).
# System: rat heart tissue
# Experiment: GENECALLING differential gene expression analysis after dosing of serotonin modulating agents
# Assay type: in vivo, Sprague Dawley rats
# Method in brief: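 GENECALLING profiling of cDNA from total RNA, keeping gene fragments modulated beyond ±1.5-fold. Tissue collected 24 h after final dosing of serotonin modulating agents; control rats received sterile water or canola oil.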
smiles,measurement,setting,value
CN1C[C@H](C(=O)N[C@]2(C)O[C@@]3(O)[C@@H]4CCCN4C(=O)[C@H](Cc4ccccc4)N3C2=O)C[C@@H]2c3cccc4[nH]cc(c34)C[C@H]21 [dihydroergotamine],"Effects on Transcription Level: Novel gene fragment, 524 bp, 86% SI to mouse F-box protein FBX6b [AF176526]",CARDIOTOX 1,+1.3 fold
same,"Effects on Transcription Level: Novel gene fragment, 306 bp, 91% SI to mouse low density lipoprotein receptor related protein 4 [AB013874]",CARDIOTOX 2,−1.4 fold
same,"Effects on Transcription Level: Novel gene fragment, 540 bp, 97% SI to mouse skeletal muscle alpha-actin [X03766]",CARDIOTOX 3,+1.2 fold
same,"Effects on Transcription Level: Novel gene fragment, 80 bp",CARDIOTOX 4,−1.4 fold
same,"Effects on Transcription Level: Novel gene fragment, 957 bp, 99% SI to kidney injury associated moleculer HW036 [V80591]",CARDIOTOX 5,−1.4 fold
same,"Effects on Transcription Level: Novel gene fragment, 282 bp, 85% SI to human KIAA1515 protein [AB040948]",CARDIOTOX 6,−1.2 fold
same,"Effects on Transcription Level: Novel gene fragment, 405 bp, 88% SI to human 2-oxoglutarate dehydrogenase [D10523]",CARDIOTOX 7,+1.3 fold
same,Effects on Transcription Level: UCP2,"CARDIOTOX 8, GenBank AB010743",+1.0 fold
same,Effects on Transcription Level: Plasma membrane Ca2 + ATPase-isoform 1,"CARDIOTOX 9, GenBank J03753",−1.4 fold
same,"Effects on Transcription Level: Novel gene fragment, 242 bp, 97% SI to mouse HSP86 heat-shock protein [X16857]",CARDIOTOX 10,+1.0 fold
same,"Effects on Transcription Level: Novel gene fragment, 280 bp, 65% SI to human TRF1-interacting, ankyrin-related ADP-ribose polymerase [AF082556]",CARDIOTOX 11,+1.3 fold
same,"Effects on Transcription Level: Novel gene fragment, 348 bp, 88% SI to mouse Sec61 protein complex gamma subunit [U11027]",CARDIOTOX 12,+1.4 fold
same,"Effects on Transcription Level: Novel gene fragment 553 bp, 93% SI to mouse Sid329 [AB024984]",CARDIOTOX 13,+1.2 fold
same,Effects on Transcription Level: Kruppel-like transcription factor,"CARDIOTOX 14, GenBank AB020759",+1.2 fold
same,Effects on Transcription Level: Ribosomal protein L3,"CARDIOTOX 15, GenBank X62166",+1.4 fold
same,Effects on Transcription Level: Glucose-regulated protein (GRP) 75,"CARDIOTOX 16, GenBank S78556",+1.2 fold
same,Effects on Transcription Level: Immunoglobulin heavy chain binding protein (BiP),"CARDIOTOX 17, GenBank M14050",+1.2 fold
same,Effects on Transcription Level: Membrane-spannining proteoglycan NG2,"CARDIOTOX 18, GenBank X56541",−1.4 fold
same,"Effects on Transcription Level: Novel gene fragment, 1294 bp, 96% SI to mouse Sui 1 (elF) homolog [AF129888]",CARDIOTOX 19,+1.1 fold
same,"Effects on Transcription Level: Novel gene fragment, 723 bp, 85% SI to human translation initiation factor elF3 p40 subunit [U54559]",CARDIOTOX 20,+1.2 fold
same,"Effects on Transcription Level: Novel gene fragment, 1324 bp, 76% SI to human flavoprotein subunit of complex II [D30648]",CARDIOTOX 21,+1.3 fold
same,"Effects on Transcription Level: Novel gene fragment, 852 bp, 81% SI to human vacuolar proton-ATPase subunit M9.2 [Y15286]",CARDIOTOX 22,+1.4 fold
same,"Effects on Transcription Level: Novel gene fragment, 178 bp, 91% SI to mouse myosin light chain-2 isoform MLC-2a [S70785]",CARDIOTOX 23,+1.2 fold
same,"Effects on Transcription Level: Novel gene fragment, 167 bp, 90% SI to mouse Rab20 [X80332]",CARDIOTOX 24,+1.2 fold
same,"Effects on Transcription Level: Novel gene fragment, 1070 bp, 80% SI to human muscle-specific protein [AF249873]",CARDIOTOX 25,+1.2 fold
same,"Effects on Transcription Level: Novel gene fragment, 1143 bp, 82% SI to human sarcoma amplified sequence (SAS) [U01160]",CARDIOTOX 26,+1.4 fold
same,"Effects on Transcription Level: Novel gene fragment, 74 bp,75% SI to human secreted protein [X30160] (from patent database)/[X97578] (from patent database)/potential cytokine)",CARDIOTOX 27,+1.4 fold
same,"Effects on Transcription Level: Novel gene fragment, 408 bp, 90% SI to human CGI-07 protein [AF132941]",CARDIOTOX 28,+1.2 fold
same,"Effects on Transcription Level: Novel gene fragment, 618 bp, 95% SI to rat progression related cDNA, ZNPE-120 3′ end partial sequence [patent database X90805]",CARDIOTOX 29,+1.0 fold
same,"Effects on Transcription Level: Novel gene fragment, 717 bp",CARDIOTOX 30,+1.2 fold
same,"Effects on Transcription Level: Novel gene fragment, 546 bp",CARDIOTOX 31,−1.0 fold
same,"Effects on Transcription Level: Novel gene fragment, 920 bp, 91% SI to human HSPC061 [AF161546]",CARDIOTOX 32,+1.3 fold
same,"Effects on Transcription Level: Novel gene fragment, 203 bp, 92% SI to rabbit sarcoplasmic reticulum glycoprotein [J04480]",CARDIOTOX 33,−1.1 fold
same,"Effects on Transcription Level: Novel gene fragment, 178 bp, 68% SI to mouse IgG receptor (beta-Fc-gamma-RII)[M63159]",CARDIOTOX 34,+1.2 fold
same,Effects on Transcription Level: Ribosomal protein L6,"CARDIOTOX 35, GenBank X87107",+1.4 fold
same,Effects on Transcription Level: CAP2 protein (adenylyl cyclase-associated protein 2),"CARDIOTOX 36, GenBank U31935",+1.2 fold
same,Effects on Transcription Level: Alpha-platelet-derived growth factor receptor,"CARDIOTOX 37, GenBank M63837",−1.0 fold
same,Effects on Transcription Level: Rab GD1 alpha protein,"CARDIOTOX 38, GenBank X74402",−1.1 fold
same,Effects on Transcription Level: PKC-zeta-interacting protein,"CARDIOTOX 39, GenBank Y08355",+1.2 fold
same,Effects on Transcription Level: ERK or MAP kinase,"CARDIOTOX 40, GenBank X65198",+1.4 fold
same,Effects on Transcription Level: Peroxisomal multifunctional enzyme type II,"CARDIOTOX 41, GenBank U37486",+1.2 fold
same,Effects on Transcription Level: HBP23 (heme-binding protein 23 kDa),"CARDIOTOX 42, GenBank D30035",+1.3 fold
same,Effects on Transcription Level: Caveolae-associated protein,"CARDIOTOX 43, GenBank U90725",+1.3 fold
same,Effects on Transcription Level: Prenylated rab acceptor 1 (PRA1),"CARDIOTOX 44, GenBank AF025506",+1.0 fold
same,"Effects on Transcription Level: Novel gene fragment, 337 bp, 88% SI to rabbit cardiac ryanodine receptor (RyR-2)[U50465]",CARDIOTOX 45,−2.5 fold
same,"Effects on Transcription Level: Novel gene fragment, 81 bp, 85% SI to human titin [X90568]",CARDIOTOX 46,−2.8 fold
same,"Effects on Transcription Level: Novel gene fragment, 428 bp, 86% SI to human titin [X90568]",CARDIOTOX 47,−1.7 fold
same,"Effects on Transcription Level: Novel gene fragment, 374 bp, 88% SI to human titin [X90568]",CARDIOTOX 48,−5.5 fold
same,"Effects on Transcription Level: Novel gene fragment, 428 bp, 85% SI to human titin [90568]",CARDIOTOX 49,−3.8 fold
same,"Effects on Transcription Level: Novel gene fragment, 1216 bp, 93% SI to mouse mircotubule-associated protein (MAP) 1B protein [AF115776]",CARDIOTOX 50,−1.5 fold
same,"Effects on Transcription Level: Novel gene fragment, 1115 bp, 83% SI to human KIAA0549 protein [AB011121]",CARDIOTOX 51,−1.5 fold
same,"Effects on Transcription Level: Novel gene fragment, 153 bp",CARDIOTOX 52,−1.7 fold
same,"Effects on Transcription Level: Novel gene fragment, 89 bp, 93% SI to human putative glialblastoma cell differentiation-related protein (GBDR1) [AF068195]",CARDIOTOX 53,+1.5 fold
same,Effects on Transcription Level: Rho-associated kinase beta,"CARDIOTOX 54, GenBank U61266",−2.6 fold
same,Effects on Transcription Level: Adenylate kinase 3,"CARDIOTOX 55, GenBank D13062",+1.5 fold
same,Effects on Transcription Level: Amyloid beta-peptide binding protein,"CARDIOTOX 56, GenBank AF049878",+1.7 fold
same,Effects on Transcription Level: Mitochondrial adenine nuleotide translocator,"CARDIOTOX 57, GenBank D12771",+1.8 fold
same,"Effects on Transcription Level: Novel gene fragment, 710 bp, 94% SI to mouse chromatin structural protein homolog Supt5 hp (Supt5 h)[U88539]",CARDIOTOX 58,+2.8 fold
same,"Effects on Transcription Level: Novel gene fragment, 186 bp, 66% SI to human N-acetylglucosaminyltransferase 1 (GlcNAc-TI)[M55621]",CARDIOTOX 60,−1.5 fold
same,"Effects on Transcription Level: Novel gene fragment, 238 bp, 95% SI to mouse MAP kinase-activated protein kinase 2 [X76850]",CARDIOTOX 61,−1.5 fold
same,"Effects on Transcription Level: Novel gene fragment, 173 bp, 70% SI to G protein-coupled receptor kinase GRK4 [X97568]",CARDIOTOX 62,−7.2 fold
same,"Effects on Transcription Level: Novel gene fragment, 133 bp, 77% SI to human apoptosis related protein hSARP3 [patent database: V19114]",CARDIOTOX 63,−2.5 fold
same,"Effects on Transcription Level: Novel gene fragment, 477 bp, 98% SI to peroxisomal phytanoyl-CoA hydroxylase (PHYH) [AF121345]",CARDIOTOX 64,+8.0 fold
same,"Effects on Transcription Level: Novel gene fragment, 413 bp, 95% SI to mouse dihydrolipoamide dehydrogenase (Dld) [U73445]",CARDIOTOX 65,+2.2 fold
same,"Effects on Transcription Level: Novel gene fragment, 726 bp, 76% SI to human succinate dehydrogenase flavoprotein subunit (SDH) [L21936]",CARDIOTOX 66,−3.6 fold
same,"Effects on Transcription Level: Novel gene fragment, 440 bp, 92% SI to mouse cytochrome c oxidase Vllc [X52940]",CARDIOTOX 67,+4.1 fold
same,"Effects on Transcription Level: Novel gene fragment, 276 bp, 80% SI to human titin [X90568]",CARDIOTOX 68,−6.5 fold
same,"Effects on Transcription Level: Novel gene fragment, 149 bp, 70% SI to human titin [X90568]",CARDIOTOX 69,+8.0 fold
same,"Effects on Transcription Level: Novel gene fragment, 467 bp, 94% SI to mouse gelsolin [J04953]",CARDIOTOX 70,−1.6 fold
